# Measurements taken from publication PMC4791274, “Cerdulatinib, a novel dual SYK/JAK kinase inhibitor, has broad anti-tumor activity in both ABC and GCB types of diffuse large B cell lymphoma” (Oncotarget, 2015).
# pIC50: −log10 of the molar value.
# Experiments:
# PAR1B-α = conditions: biochemical assay; cited from earlier work
# FLT4 = conditions: biochemical assay; cited from earlier work
# FLT3 = conditions: biochemical assay; cited from earlier work
# HBL1 ABC DLBCL cell line = test: MTT assay (cellular metabolic activity), 72 h; type: cell-based; conditions: HBL1, 72 h
# Protocol: (§1) DLBCL cell lines were treated with various concentrations of cerdulatinib for up to 72 h. The metabolic activities of cells were determined with MTT assay according to manufacturer's instruction (Roche Applied Science, Indianapolis, IN) at 72 h time point. IC50 was calculated using the Sigma Plot generated with GraphPad Prism 6 software (GraphPad, La Jolla, CA). Cell growth was measured at every 24 h counting live cells with flow cytometry as previously described. Cells were collected every 24 h and cell viability was determined by the PE Annexin V Apoptosis Detection Kit I (BD Biosciences).
# [1] = tested on: LY3 (OCI-LY3) ABC DLBCL cell line; test: MTT assay (cellular metabolic activity), 72 h; type: cell-based; conditions: Homo sapiens, OCI-Ly3, 72 h
# Protocol: as §1
# [2] = tested on: SUDHL6 GCB DLBCL cell line; test: MTT assay (cellular metabolic activity), 72 h; type: cell-based; conditions: Homo sapiens, SU-DHL-6; SUDHL6, 72 h
# Protocol: as §1
# [3] = tested on: LY18 (OCI-LY18) GCB DLBCL cell line; test: MTT assay (cellular metabolic activity), 72 h; type: cell-based; conditions: Homo sapiens, OCI-Ly18, 72 h
# Protocol: as §1
# [4] = tested on: U2932 ABC DLBCL cell line; test: MTT assay (cellular metabolic activity), 72 h; type: cell-based; conditions: Homo sapiens, U2932, 72 h
# Protocol: as §1
# [5] = tested on: LY4 (OCI-LY4) GCB DLBCL cell line; test: MTT assay (cellular metabolic activity), 72 h; type: cell-based; conditions: LY4, 72 h
# Protocol: as §1
# [6] = tested on: LY10 (OCI-LY10) ABC DLBCL cell line; test: MTT assay (cellular metabolic activity), 72 h; type: cell-based; conditions: LY10, 72 h
# Protocol: as §1
# VAL GCB DLBCL cell line = test: MTT assay (cellular metabolic activity), 72 h; type: cell-based
# Protocol: as §1
# [7] = tested on: SUDHL2 ABC DLBCL cell line; test: MTT assay (cellular metabolic activity), 72 h; type: cell-based; conditions: Homo sapiens, SU-DHL-2; SUDHL2, 72 h
# Protocol: as §1
# [8] = tested on: LY8 (OCI-LY8) GCB DLBCL cell line; test: MTT assay (cellular metabolic activity), 72 h; type: cell-based; conditions: OCI-Ly8, 72 h
# Protocol: as §1
# [9] = tested on: LY1 (OCI-LY1) GCB DLBCL cell line; test: MTT assay (cellular metabolic activity), 72 h; type: cell-based; conditions: Homo sapiens, OCI-Ly1, 72 h
# Protocol: as §1
# JAK3 = conditions: biochemical assay; cited from earlier work
# 24 kinases = conditions: biochemical assays, Table 1; read-out: IC50's against 24 kinases; cited from earlier work
# MARK1 = conditions: biochemical assay; cited from earlier work
# RSK2 = conditions: biochemical assay; cited from earlier work
# MLK1 = conditions: biochemical assay; cited from earlier work
# JAK2 [10] = conditions: cited from earlier work
# LY18 cells = test: cell cycle analysis, BrdU incorporation; type: cell-based; conditions: LY18, 48 h
# Protocol: (§2) DLBCL cells were treated with various concentrations of cerdulatinib for 48 h. Cells were incubated with 10 μM BrdU (BD Biosciences, San Jose, CA) at 37°C for 2 h, and stained with PE conjugated anti-BrdU antibody (BD Biosciences) according to the supplier's manual. The percentage of cell cycle distribution was analyzed with FlowJo (Tree Star Inc. Ashland, OR).
# DHL2 cells = test: cell cycle analysis, BrdU incorporation; type: cell-based; conditions: DHL2, 48 h
# Protocol: as §2
# DHL6 cells = test: cell cycle analysis, BrdU incorporation; type: cell-based; conditions: DHL6, 48 h
# Protocol: as §2
# LY3 cells = test: cell cycle analysis, BrdU incorporation; type: cell-based; conditions: LY3, 48 h
# Protocol: as §2
# HBL1 cells = test: cell cycle analysis, BrdU incorporation; type: cell-based; conditions: HBL1, 48 h
# Protocol: as §2
# TBK1 = conditions: biochemical assay; cited from earlier work
# JAK2 [11] = conditions: biochemical assay; cited from earlier work
# [12] = tested on: patients with CLL and NHL; design: method as in Flinn I, et al. 2015 ASCO annual meeting Abstract #8531; conditions: oral, ref Flinn I, et al. 2015 ASCO annual meeting Abstract #8531; cited from earlier work
# LCK = conditions: cited from earlier work
# p-SYK = test: immunoblotting of p-SYK in BCR-stimulated DLBCL cell lines; type: cell-based; conditions: 3 μM, anti IgM/IgG stimulated, all five cell lines
# Protocol: Immunoblotting were performed as previously described. Antibodies including total STAT3, SYK, PLCγ2, AKT, ERK1/2, PARP, caspase 3, and phosphorylated STAT3 (S727), STAT3 (Y705), SYK (Y525/526), PLCγ2 (Y759), PLCγ2 (Y1217), AKT (S473), ERK1/2 (Y204) and RB (S807/811) were purchased from Cell Signaling (Danvers, MA). Cyclin E antibody was purchased from Santa Cruz Biotechnology (Dallas, TX), and β-actin antibody was purchased from Sigma-Aldrich (St Louis, MO). Antibodies used in phosphoflow assay, including phosphorylated STAT3 (S727), SYK (Y525/526), PLCγ2 (Y759), AKT (S473), and ERK1/2 (Y204) were purchased from BD Biosciences (San Jose, CA).
# MST1 = conditions: biochemical assay; cited from earlier work
# TSSK = conditions: biochemical assay; cited from earlier work
# SYK = conditions: biochemical assay; cited from earlier work
# ARK5 = conditions: biochemical assay; cited from earlier work
structure (smiles),measurement,setting,value
CCS(=O)(=O)N1CCN(c2ccc(Nc3ncc(C(N)=O)c(NC4CC4)n3)cc2)CC1 [cerdulatinib],IC50,PAR1B-α,13 nM
same,IC50,FLT4,51 nM
same,IC50,FLT3,90 nM
same,pIC50,HBL1 ABC DLBCL cell line,6.27
same,pIC50,[1],5.78
same,pIC50,[2],7.00
same,pIC50,[3],6.80
same,pIC50,[4],5.74
same,pIC50,[5],5.68
same,pIC50,[6],6.54
same,pIC50,VAL GCB DLBCL cell line,6.89
same,pIC50,[7],6.01
same,pIC50,[8],7.30
same,pIC50,[9],6.57
same,IC50,JAK3,8 nM
same,pIC50,24 kinases,> 6.70
same,IC50,MARK1,10 nM
same,IC50,RSK2,20 nM
same,IC50,MLK1,5 nM
same,cellular activity against JAK2,JAK2 [10],lacking cellular activity
same,S phase fraction,LY18 cells,significant dose-dependent reduction
same,effect on S phase fraction,DHL2 cells,modest
same,S phase fraction,DHL6 cells,significant dose-dependent reduction
same,effect on S phase fraction,LY3 cells,modest
same,S phase fraction,HBL1 cells,significant dose-dependent reduction
same,IC50,TBK1,10 nM
same,IC50,JAK2 [11],6 nM
same,target tumor reductions,[12],greater than 50%
same,cellular activity against LCK,LCK,lacking cellular activity
same,p-SYK level,p-SYK,significant reduction
same,IC50,MST1,4 nM
same,IC50,TSSK,14 nM
same,IC50,SYK,32 nM
same,IC50,ARK5,4 nM
